Measured values from patent US5811456A, “Monoamine oxidase B inhibitors, processes for their preparation and use thereof” (priority 1994, dated 1998).
pIC50: −log10 of the molar value. Like-named read-outs stand apart in the source and are kept apart here.

How the values were obtained:
[1] = background; cited from earlier work
rat brain MAO B = target: T1, rat brain MAO B (Rattus norvegicus, UniProt P19643); test: Inhibitory activity toward rat brain MAO B in vitro (14C-beta-phenylethylamine substrate); type: biochemical
T1 construct: makes it possible to obtain a pellet enriched in mitochondria; from tissue; host or cells: Wistar rat brain without cerebellum, mitochondria-enriched pellet
T1 sequence (P19643 1-520): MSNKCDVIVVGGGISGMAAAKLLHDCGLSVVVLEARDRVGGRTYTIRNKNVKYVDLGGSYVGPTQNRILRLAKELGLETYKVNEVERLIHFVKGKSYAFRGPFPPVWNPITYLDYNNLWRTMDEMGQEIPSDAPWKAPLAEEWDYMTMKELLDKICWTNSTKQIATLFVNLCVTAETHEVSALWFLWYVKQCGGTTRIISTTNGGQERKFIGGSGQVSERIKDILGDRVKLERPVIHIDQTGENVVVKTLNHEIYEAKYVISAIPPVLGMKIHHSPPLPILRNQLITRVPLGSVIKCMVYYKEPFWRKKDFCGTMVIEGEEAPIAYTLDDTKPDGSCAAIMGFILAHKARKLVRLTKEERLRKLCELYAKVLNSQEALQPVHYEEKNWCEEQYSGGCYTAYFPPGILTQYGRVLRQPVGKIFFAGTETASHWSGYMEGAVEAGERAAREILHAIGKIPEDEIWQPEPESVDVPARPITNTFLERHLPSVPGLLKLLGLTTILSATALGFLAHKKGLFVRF

monoamine oxidase B = target: T2, monoamine oxidase B (Rattus norvegicus, UniProt P19643); test: Reversibility of the inhibitory activity toward MAO B (residual activity before and after washing); type: biochemical; details: mean of 4 assays
T2 construct: from tissue; host or cells: rat brain mitochondria (inferred from section 21.1; not restated in section 21.2)
T2 sequence (P19643 1-520): T1 sequence (P19643 1-520)

[2] = MTT cytotoxicity test on adherent cells; type: cell-based; details: human, hela ohio cells; for CC50 at 24 h: read-out: LD50 (concentration for which 50% of the cells are killed); for MNTC at 24 h: read-out: MC100 (maximum concentration for which all the cells are alive)
[3] = Cytotoxicity test on the cells in suspension (Trypan blue); type: cell-based; details: human, daudi cells; for CC50 at 24 h: read-out: LD50 (concentration for which 50% of the cells are killed); for MNTC at 24 h: read-out: MC100 (maximum concentration for which all the cells are alive)
rat brain MAO A = target: T3, rat brain MAO A (Rattus norvegicus, UniProt P21396); test: Inhibitory activity toward rat brain MAO A in vitro (14C-serotonin substrate); type: biochemical
T3 construct: makes it possible to obtain a pellet enriched in mitochondria; from tissue; host or cells: Wistar rat brain without cerebellum, mitochondria-enriched pellet
T3 sequence (P21396 1-526): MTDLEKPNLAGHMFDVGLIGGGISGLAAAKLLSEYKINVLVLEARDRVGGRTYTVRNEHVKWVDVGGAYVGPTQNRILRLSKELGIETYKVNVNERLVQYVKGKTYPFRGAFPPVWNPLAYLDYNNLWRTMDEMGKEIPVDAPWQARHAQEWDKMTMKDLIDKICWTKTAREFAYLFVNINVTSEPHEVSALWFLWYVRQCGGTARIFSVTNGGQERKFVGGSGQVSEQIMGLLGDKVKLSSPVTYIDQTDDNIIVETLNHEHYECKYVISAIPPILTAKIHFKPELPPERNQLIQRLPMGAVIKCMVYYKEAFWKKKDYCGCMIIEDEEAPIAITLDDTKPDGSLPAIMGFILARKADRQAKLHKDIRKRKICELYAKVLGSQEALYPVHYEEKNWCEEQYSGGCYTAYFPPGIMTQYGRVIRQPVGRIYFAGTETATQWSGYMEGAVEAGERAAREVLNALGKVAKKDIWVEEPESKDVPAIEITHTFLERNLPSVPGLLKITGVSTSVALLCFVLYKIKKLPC

MAO A = details: background; cited from earlier work
[4] = ap: after preincubation (30 minutes, 37° C.), read-out: IC50 MAO B
[5] = wp: without preincubation, read-out: IC50 MAO B
[6] = ap: after preincubation (30 minutes, 37° C.)

SMILES	pIC50 (rat brain MAO B; [4])	pIC50 (rat brain MAO B; [5])	MNTC at 24 h [2] [nM]	CC50 at 24 h [3] [µM]	MNTC at 24 h [3] [µM]	other results
C#CCN(C)C(C)Cc1ccccc1 (stereo not shown) [Deprenyl]	–	–	–	–	–	antidepressant effects (in words) [1]: lack antidepressant effects
CC(=O)N(CCC#N)N=Cc1ccc(OCc2ccccc2)cc1 [I-a2, 4-(Benzyloxy)benzaldehyde acetyl(2-cyanoethyl)hydrazone]	8.52	7.46	10000	100	10	Percentage of residual MAO activity (monoamine oxidase B; after washing, 30 min): 105%; Percentage of residual MAO activity (monoamine oxidase B; before washing, 30 min incubation at 37° C.): 14%; CC50 at 24 h [2]: 100 µM
CC(=O)N(CCC#N)N=Cc1ccc(OCc2ccc(C)cc2)cc1 [I-a2.1]	6.16	4.37	–	–	–	–
CC(=O)N(CCC#N)N=Cc1ccc(OCc2ccc([N+](=O)[O-])cc2)cc1 [I-a2.2]	5.85	5.52	650	22	10	CC50 at 24 h [2]: 30 µM
CC(=O)N(CCC#N)N=Cc1ccc(OCc2ccc(Cl)cc2)cc1 [I-a2.3]	6.61	4.95	600	50	10	–
COc1ccc(COc2ccc(C=NN(CCC#N)C(C)=O)cc2)cc1 [I-a2.4]	5.67	4.55	2300	65	12.5	CC50 at 24 h [2]: 40 µM
CC(=O)N(CCC#N)N=Cc1ccc(OCc2ccc(Cl)cc2Cl)cc1 [I-a2.5, 4-[(2,4-Dichlorobenzyl)oxy]benzaldehyde acetyl(2-cyanoethyl)hydrazone]	–	–	–	–	–	pIC50 (rat brain MAO B): 6.42; IC50 MAO B (rat brain MAO B; wp: without preincubation): precipitate
CC(=O)N(CCO)N=Cc1ccc(OCc2ccccc2)cc1 [I-a4, 4-(Benzyloxy)benzaldehyde acetyl(2-hydroxyethyl)hydrazone]	8.20	7.55	10000	100	10	pIC50 (rat brain MAO A; [6]): 4.30; pIC50 (rat brain MAO A; wp: without preincubation): 4.30; CC50 at 24 h [2]: 100 µM
CC(=O)N(CCC#N)N=Cc1ccc(OCCc2ccccc2)cc1 [I-a6, 4-(2-Phenylethozy)benzaldehyde acetyl(2-cyanoethyl)hydrazone]	7.82	5.52	–	–	–	pIC50 (rat brain MAO A; [6]): 5.17; pIC50 (rat brain MAO A; wp: without preincubation): 4.28
C#CCN(N=Cc1ccc(OCc2ccccc2)cc1)C(C)=O [I-a10, 4-(Benzyloxy)benzaldehyde acetylpropargylhydrazone]	6.44	5.39	–	–	–	–
CCOC(=O)N(CCC#N)N=Cc1ccc(OCc2ccccc2)cc1 [I-b2, 4-(Benzylozy)benzaldehyde (2-cyanoethyl)(ethoxycarbonyl)hydrazone]	5.20	4.66	–	–	–	–
CCOC(=O)N(CCO)N=Cc1ccc(OCc2ccccc2)cc1 [I-b4, 4-(Benzyloxy)benzaldehyde (2-hydroxyethyl)(ethoxycarbonyl)hydrazone]	5.00	4.46	–	–	–	–
CNC(=O)N(CCC#N)N=Cc1ccccc1 [I-c1, Benzaldehyde (2-cyanoethyl)(N-methylcarbamoyl)hydrazone]	3.92	3.55	–	–	–	–
CNC(=O)N(CCC#N)N=Cc1ccc(OCc2ccccc2)cc1 [I-c2, 4-(benzyloxy)benzaldehyde (2-cyanoethyl)(N-methylcarbamoyl)hydrazone]	5.60	5.74	–	–	–	–
C#CCN(C)CCCOc1ccc(Cl)cc1Cl [clorgyline]	–	–	–	–	–	inhibition of MAO A (in words) (MAO A): inhibit MAO A
C#CCN(C)Cc1ccccc1 [pargyline]	–	–	–	–	–	inhibition of MAO A (in words) (MAO A): inhibit MAO A; antidepressant effects (in words) [1]: lack antidepressant effects
